Holding throughout (experiment): antibacterial and antifungal growth inhibition panel, profiling panel, Idler compounds, first plate, PMBN-permeabilized strains (AID 2061108)
Common to all, as to set-up: haemolysis: dose or concentration left out as unconfirmed

Experiment [1] deals with C. albicans NCPF 3281 growth inhibition, 100 uM. Conditions: S. aureus ATCC 9144 growth inhibition; measured here: C. albicans NCPF 3281; at 100 µM; stronger effect = higher value.
For experiment [2], the system named is E. coli NCTC 12923 growth inhibition, 100 uM. Conditions: E. coli NCTC 12923 growth inhibition, 100 µM; stronger effect = higher value.
For experiment [3], the system named is A. baumannii ATCC 17978 growth inhibition, 100 uM. Conditions: S. aureus ATCC 9144 growth inhibition; measured here: A. baumannii ATCC 17978; at 100 µM; stronger effect = higher value.
Experiment [4] concerns E. coli NCTC 12923 + PMBN growth inhibition, 100 uM. The note with it: S. aureus ATCC 9144 growth inhibition; measured here: E. coli plus PMBN; at 100 µM; stronger effect = higher value.
The test system of experiment [5] is M. avium growth inhibition, 10 uM. Conditions: M. avium growth inhibition, 10 µM.
Experiment [6] concerns red blood cell haemolysis. Conditions: stronger effect = higher value; dose or concentration not given here.
In experiment [7] the test system is M. abscessus growth inhibition, 10 uM. Conditions: S. aureus ATCC 9144 growth inhibition; measured here: M. abscessus; at 10 µM.
Experiment [8] relates to S. aureus ATCC 9144 growth inhibition, 100 uM. Conditions: S. aureus ATCC 9144 growth inhibition; at 100 µM; stronger effect = higher value.
For experiment [9], the system named is A. baumannii ATCC 17978 + PMBN growth inhibition, 100 uM. The note with it: A. baumannii plus PMBN growth inhibition, 100 µM; stronger effect = higher value.

The record followed here is PubChem BioAssay AID2061108 (Research group of Professor Matthew Todd, School of …, 2025).

Calls of active or inactive are those of the source. How the calls were made is not given here.

In the case of `CC(C)c1cc(Nc2nc(N[C@@H](CO)C3CCCCC3)nc3[nH]ncc23)n[nH]1`, the inhibition in [1] was -64%; in [2], -18.2%; in [3], -4.22%; in experiment [4], 99.1%; in [5], 0.54%; in experiment [7] it was -0.415%. Moreover, the inhibition is -3.86% in experiment [8] and 57.6% in [9]. Also, the haemolysis in experiment [6] turned out to be 1.61%.
In the case of `Nc1ncnc2cc(-c3cccc(S(N)(=O)=O)c3)sc12`, the inhibition in experiment [1] is -67.9%; in [2], 1.22%; in [3] it was -9.52%; in experiment [4] it was 91.6%; in experiment [5], 50.5%; in [7], 0.72%. In addition, the values for the inhibition in [8] and in [9] were 27.3% and -11.6%, respectively. Also, the haemolysis in [6] was -0.345%.
Turning to `O=C(CSc1nc(=O)[nH]c2c1CCC2)c1ccc(Cl)cc1`, the inhibition in [1] is -110%; in experiment [2], -22%; in [3], 0%; in experiment [4] it was -20%; in experiment [5], 0.488%; in experiment [7], -0.381%. Moreover, the inhibition in [8] is -14.2% (inactive); in [9], 10.9%. In [6], the haemolysis worked out at 0.151%.
Turning to `O=S(=O)(c1ccc2nncn2c1)N(Cc1cccc(F)c1)c1ccc2c(c1)OCCO2`, the inhibition is -82.4% in experiment [1]; -55.8% in experiment [2]; -2.17% in experiment [3]; -20.9% in experiment [4]; -0.711% in [5]; -0.196% in experiment [7]. The inhibition in experiment [8] was -8.6% (inactive); in [9] it was 11.3%. Besides, the haemolysis in experiment [6] is 8.17%.
As to `O=C(Nc1cccc(C(F)(F)F)c1)C(Cl)C(=O)c1ccccc1` (stereo not given), the inhibition in experiment [1] was 101%; in [2], 34.5%; in [3] it was 46.6%; in experiment [4] it was 100%; in experiment [5], 1.13%; in experiment [7], 0.0425%. In addition, the inhibition in experiment [8] is 101%; in [9], 99.6%. Further, the haemolysis in experiment [6] turned out to be 0.0983%.
For `Nc1ncnc2cc(-c3cccc(S(=O)(=O)NC(=O)C4CCCN4)c3)sc12` (stereo not given), the inhibition in [1] was -16.7%; in experiment [2], -67.2%; in [3], -13%; in [4] it was -40.7%; in experiment [5], 5.56%; in experiment [7] it was -0.89%. For the same compound, the inhibition is 48.7% (inactive) in experiment [8] and -10.6% in experiment [9]. Besides, the haemolysis in experiment [6] came out at 0.251%.
Turning to `N#Cc1c(NC[C@H]2CCCN2)nc2ccccc2c1C(F)(F)F`, the inhibition in experiment [1] is -78.9%; in experiment [2], 12.8%; in experiment [3] it was 9.76%; in [4], 17.7%; in experiment [5], -0.31%; in experiment [7], -1.13%. Also, the inhibition in [8] is 99.7%; in experiment [9] it was 53.6%. Further, in experiment [6], the haemolysis was found to be 0.41%.
Turning to `CC(N)C(=O)NS(=O)(=O)c1cccc(-c2cc3ncnc(N)c3s2)c1` (stereo not given), the inhibition is -29.6% in experiment [1]; -32.4% in experiment [2]; -14.5% in experiment [3]; -31.8% in experiment [4]; 45.2% in experiment [5]; -0.285% in experiment [7]. In addition, the results for the inhibition in experiment [8] and in experiment [9] were -35.4% (inactive) and -25.6%, respectively. Besides, in experiment [6], the haemolysis amounted to 0.129%.
With `Oc1ccc(CN2CCN(c3ccccc3F)CC2)c2cccnc12`, the inhibition in experiment [1] was 95.2%; in experiment [2] it was -2.43%; in experiment [3] it was 14.6%; in experiment [4], 6.46%; in experiment [5], -0.052%; in experiment [7], 0.148%. Besides, the results for the inhibition in [8] and in experiment [9] were 6.49% and 18.1%, respectively. In experiment [6], the haemolysis worked out at 1.25%.
As to `COc1cc2nc(Nc3cc(C)[nH]n3)nc(N3CC(N(C)C)C3)c2cc1OC`, the inhibition in experiment [1] is 13.3%; in experiment [2] it was 5.14%; in experiment [3], 3.33%; in experiment [4] it was -10.1%; in [5], 1.81%; in experiment [7], -0.369%. The inhibition in experiment [8] was 33% (inactive); in experiment [9] it was 17.5%. The haemolysis in [6] came to 0.198%.
For `COc1ccc2c(c1)nc(-c1c[nH]c3ccc(N4CCSCC4)cc13)c1[nH]ccc12`, the inhibition is 95% in experiment [1]; 9.46% in [2]; 98.1% in experiment [3]; 97% in [4]; 3% in experiment [5]; 0.136% in experiment [7]. For the same compound, the results for the inhibition in experiment [8] and in [9] were 98.1% and 96.3%, respectively. Further, the haemolysis in experiment [6] was found to be 1.04%.
For `NC(=O)CSc1nnc(COc2ccccc2)n1-c1ccccc1`, the inhibition in [1] was -39.3%; in experiment [2], -3.24%; in [3], 0.843%; in experiment [4] it was 2.8%; in experiment [5] it was 0.364%; in experiment [7], 0.484%. Also, the values for the inhibition in [8] and in [9] were 15.3% (inactive) and 23.4%, respectively. The haemolysis in experiment [6] is 0.123%.
Take `Cc1ccc(CN2C(=O)NC3(CCN(C(=O)C(C)Oc4ccccc4)CC3)C2=O)cc1` (stereo not given): the inhibition in experiment [1] is -57.6%; in experiment [2], -2.03%; in [3], -7.26%; in experiment [4], 22.5%; in [5], -0.615%; in [7], -1.03%. In addition, the figures for the inhibition in experiment [8] and in experiment [9] were 8.83% (inactive) and 22.5%, respectively. Besides, in experiment [6], the haemolysis is -0.00857%.
`CCOc1ccc2ncc(C#N)c(N3CCC(C(=O)NCc4ccccc4F)CC3)c2c1`: the inhibition is -38.3% in experiment [1]; -44.6% in experiment [2]; -5.66% in [3]; -24% in experiment [4]; -1.25% in [5]; -0.367% in experiment [7]. For the same compound, the results for the inhibition in [8] and in [9] were -21.2% (inactive) and 1%, respectively. In addition, in experiment [6], the haemolysis stood at 0.211%.
For `O=C(Nc1ccccc1)C(Cl)C(=O)c1ccccc1` (stereo not given), the inhibition is 101% in experiment [1]; 20.3% in experiment [2]; 37.9% in [3]; 61.4% in experiment [4]; 1.66% in experiment [5]; -1.14% in [7]. The figures for the inhibition in [8] and in [9] were 100% and 98.6%, respectively. Moreover, in experiment [6], the haemolysis is -0.111%.
As to `CC(=O)NCCC(=O)NNC(=O)c1cc(-c2ccccn2)nc2ccccc12`, the inhibition in [1] was -14.4%; in [2], -5.54%; in experiment [3] it was -4.58%; in [4] it was -9.76%; in experiment [5], -0.099%; in experiment [7], -0.278%. Further, the inhibition in experiment [8] was -6.67% (inactive); in experiment [9] it was 4.14%. For the same compound, the haemolysis in experiment [6] was 0.542%.
With `COc1cc2nc(Nc3cc(C)[nH]n3)nc(NC3CCN(C(=O)OC(C)(C)C)CC3)c2cc1OC`, the inhibition was -108% in experiment [1]; 14.5% in experiment [2]; 48.6% in experiment [3]; 78.8% in experiment [4]; 3.94% in [5]; 0.14% in experiment [7]. The inhibition is 99.8% in experiment [8] and 70.4% in [9]. Besides, the haemolysis in [6] is 2.1%.
For the compound `Cn1c(=O)oc2cc(S(=O)(=O)NC3CC4CCC3C4)ccc21` (stereo not given), the inhibition in experiment [1] was -18.8%; in [2], -0.946%; in experiment [3], -1.79%; in experiment [4], -2.35%; in experiment [5] it was -0.637%; in experiment [7], -0.526%. Moreover, the inhibition in experiment [8] is 17.3% (inactive); in experiment [9], 25.8%. Further, the haemolysis in experiment [6] is -0.134%.
On to `O=C(N/N=C/c1cnc(C(F)(F)F)nc1)c1ccncc1`, for which the inhibition in experiment [1] was 17%; in experiment [2] it was -2.16%; in experiment [3], 10.4%; in experiment [4], 11.2%; in experiment [5], 1.52%; in experiment [7], 0.125%. The inhibition in [8] is 16.7% (inactive); in [9], 21.6%. In experiment [6], the haemolysis amounted to 0.15%.
For `CCC(C)C(N)C(=O)NS(=O)(=O)c1cccc(-c2cc3ncnc(N)c3s2)c1` (stereo not given), the inhibition in experiment [1] was -21.7%; in experiment [2], -29.6%; in experiment [3], -17.8%; in [4], -27.4%; in experiment [5] it was 10.3%; in experiment [7] it was -0.383%. The inhibition in experiment [8] is -39.6% (inactive); in experiment [9], -15.9%. Besides, the haemolysis in [6] turned out to be 0.094%.

As a reminder, the inhibition is the change of the read-out against control, counted positive when it falls.
